Assay results taken from patent US20230053540A1, “TREATMENT OF LIVER INJURY” (Massachusetts Institute of Technology, priority 2019, published 2023).

Test system: hepatocytes
Test: Gene set analysis (piano) of composite DEG, APAP vs untreated
Design: species or system mouse
From the text: Shared and unique by injury model gene lists were assembled by combining DE results across all time points for each injury. Applicants ran differential expression using Wilcox test in the FindAllMarkers Seurat function between each treatment condition (A6, A24, A48, A96, PH3, PH48, PH120) individually and untreated (UT). […] A small number of genes were up at one time point, but down at another.
Applicants ran pathway analysis on the composite DE results using the piano R package. Reference gene sets were downloaded from MSigDB (Broad Institute). Applicants used geneSetStat=“fisher”, adjMethod=“fdr”, and signifMethod=“geneSampling”. Applicants then parsed the results to identify shared and unique reference gene sets for each injury. Any reference gene set with a q-value greater than 0.05 was discarded as insignificant. […] Selected reference gene set −log(q) are plotted in FIG. 20.

CC(=O)Nc1ccc(O)cc1 [APAP, acetaminophen]
anti-oxidant response by gene set analysis (GSA): substantial anti-oxidant response
